What was measured:
Btk = Btk (Homo sapiens (Human), UniProt Q06187); assay: Btk acellular kinase assay (TR-FRET); assay type: biochemical; conditions: relative to compound 4
[1] = test system: BCR-activated calcium flux in Ramos cells; assay: BCR-induced calcium flux assay in Ramos cells; conditions: Homo sapiens, read-out: Ramos Cell Ca Flux IC50
DHL-6 cells = assay: DHL-6 cell growth (Alamar Blue assay); assay type: cell-based

Chain of Btk (Q06187 whole entry): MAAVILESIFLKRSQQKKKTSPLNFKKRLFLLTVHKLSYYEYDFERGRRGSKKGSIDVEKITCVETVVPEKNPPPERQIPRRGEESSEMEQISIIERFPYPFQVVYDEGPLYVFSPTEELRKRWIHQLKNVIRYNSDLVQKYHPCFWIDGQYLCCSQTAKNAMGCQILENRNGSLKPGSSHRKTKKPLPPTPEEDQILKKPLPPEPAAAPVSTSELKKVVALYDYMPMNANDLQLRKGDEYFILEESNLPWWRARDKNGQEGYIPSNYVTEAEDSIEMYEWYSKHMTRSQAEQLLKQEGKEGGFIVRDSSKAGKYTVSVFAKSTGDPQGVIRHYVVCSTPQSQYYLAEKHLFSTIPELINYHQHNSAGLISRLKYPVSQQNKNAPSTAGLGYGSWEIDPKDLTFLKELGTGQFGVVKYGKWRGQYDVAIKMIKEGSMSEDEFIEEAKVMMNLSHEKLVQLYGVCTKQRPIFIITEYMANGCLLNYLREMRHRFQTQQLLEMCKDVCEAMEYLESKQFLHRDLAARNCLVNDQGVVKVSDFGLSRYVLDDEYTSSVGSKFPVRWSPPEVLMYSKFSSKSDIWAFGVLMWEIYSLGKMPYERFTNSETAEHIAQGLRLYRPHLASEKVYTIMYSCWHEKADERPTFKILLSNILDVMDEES

| SMILES | IC50 [1] [nM] | further results |
| --- | --- | --- |
| C/C=C/C(=O)N1CCCC(n2nc(-c3ccc(Oc4ccccc4)cc3)c3c(N)ncnc32)C1 (stereo not drawn) [Compound 5, (E)-1-(3-(4-amino-3-(4-phenoxyphenyl)-1H-pyrazolo[3,4-d]pyrimidin-1-yl)piperidin-1-yl)but-2-en-1-one] | 89 | Fold less potent than compound 4 (Btk) (Btk): 28 fold |
| C=CS(=O)(=O)N1CCCC(n2nc(-c3ccc(Oc4ccccc4)cc3)c3c(N)ncnc32)C1 (stereo not drawn) [Compound 6, 1-(3-(4-amino-3-(4-phenoxyphenyl)-1H-pyrazolo[3,4-d]pyrimidin-1-yl)piperidin-1-yl)sulfonylethene] | 92 |  |
| Nc1ncnc2c1c(-c1ccc(Oc3ccccc3)cc1)nn2C1CCCN(C(=O)CCl)C1 (stereo not drawn) [Compound 7] | 9 |  |
| C#CC(=O)N1CCCC(n2nc(-c3ccc(Oc4ccccc4)cc3)c3c(N)ncnc32)C1 (stereo not drawn) [Compound 8, 1-(3-(4-amino-3-(4-phenoxyphenyl)-1H-pyrazolo[3,4-d]pyrimidin-1-yl)piperidin-1-yl)prop-2-yn-1-one] | 9 |  |
| C=CC(=O)N1CCC(n2nc(-c3ccc(Oc4ccccc4)cc3)c3c(N)ncnc32)CC1 [Compound 9, 1-(4-(4-amino-3-(4-phenoxyphenyl)-1H-pyrazolo[3,4-d]pyrimidin-1-yl)piperidin-1-yl)prop-2-en-1-one] | 48 |  |
| C=CC(=O)N[C@H]1CC[C@@H](n2nc(-c3ccc(Oc4ccccc4)cc3)c3c(N)ncnc32)CC1 [Compound 10, N-((1s,4s)-4-(4-amino-3-(4-phenoxyphenyl)-1H-pyrazolo[3,4-d]pyrimidin-1-yl)cyclohexyl)acrylamide] | 3 |  |
| C=CC(=O)N1CC[C@@H](n2nc(-c3ccc(Oc4ccccc4)cc3)c3c(N)ncnc32)C1 [Compound 11, 1-((R)-3-(4-amino-3-(4-phenoxyphenyl)-1H-pyrazolo[3,4-d]pyrimidin-1-yl)pyrrolidin-1-yl)prop-2-en-1-one] | 24 |  |
| C=CC(=O)N1CC[C@H](n2nc(-c3ccc(Oc4ccccc4)cc3)c3c(N)ncnc32)C1 [Compound 12, 1-((S)-3-(4-amino-3-(4-phenoxyphenyl)-1H-pyrazolo[3,4-d]pyrimidin-1-yl)pyrrolidin-1-yl)prop-2-en-1-one] | 90 |  |
| CN(C)C/C=C/C(=O)N1CCC[C@@H](n2nc(-c3ccc(Oc4ccccc4)cc3)c3c(N)ncnc32)C1 [Compound 15, (E)-1-(3-(4-amino-3-(4-phenoxyphenyl)-1H-pyrazolo[3,4-d]pyrimidin-1-yl)piperidin-1-yl)-4-(dimethylamino)but-2-en-1-one] | 36 | Growth of DHL-6 cells (DHL-6 cells; 24 h treatment): inhibits growth; Growth of DHL-6 cells (DHL-6 cells; 48 h treatment): inhibits growth |

Source: patent publication US20240358707A1, “INHIBITORS OF BRUTON'S TYROSINE KINASE” (Pharmacyclics LLC, priority 2006, published 2024)
